Source: the kinase profiling compilation of Christmann-Franck et al. (2016)

Legend:
Experiment in all cases: radiometric filter-binding kinase assay
[1] = test system: AKT1 (human), P31749 [S473D]
[2] = test system: AKT2 (human), P31751 [S474D]
CSNK2A1 (human) = CSNK2A1 (human) (UniProt P68400)
DYRK3 (human) = DYRK3 (human) (UniProt O43781)
EPHA2 (human) = EPHA2 (human) (UniProt P29317)
EPHB1 (human) = EPHB1 (human) (UniProt P54762)
FGFR1 (human) = FGFR1 (human) (UniProt P11362)
GSK3B (human) = GSK3B (human) (UniProt P49841)
INSR (human) = INSR (human) (UniProt P06213)
INSR (human), sequence (P06213 whole entry, looked up): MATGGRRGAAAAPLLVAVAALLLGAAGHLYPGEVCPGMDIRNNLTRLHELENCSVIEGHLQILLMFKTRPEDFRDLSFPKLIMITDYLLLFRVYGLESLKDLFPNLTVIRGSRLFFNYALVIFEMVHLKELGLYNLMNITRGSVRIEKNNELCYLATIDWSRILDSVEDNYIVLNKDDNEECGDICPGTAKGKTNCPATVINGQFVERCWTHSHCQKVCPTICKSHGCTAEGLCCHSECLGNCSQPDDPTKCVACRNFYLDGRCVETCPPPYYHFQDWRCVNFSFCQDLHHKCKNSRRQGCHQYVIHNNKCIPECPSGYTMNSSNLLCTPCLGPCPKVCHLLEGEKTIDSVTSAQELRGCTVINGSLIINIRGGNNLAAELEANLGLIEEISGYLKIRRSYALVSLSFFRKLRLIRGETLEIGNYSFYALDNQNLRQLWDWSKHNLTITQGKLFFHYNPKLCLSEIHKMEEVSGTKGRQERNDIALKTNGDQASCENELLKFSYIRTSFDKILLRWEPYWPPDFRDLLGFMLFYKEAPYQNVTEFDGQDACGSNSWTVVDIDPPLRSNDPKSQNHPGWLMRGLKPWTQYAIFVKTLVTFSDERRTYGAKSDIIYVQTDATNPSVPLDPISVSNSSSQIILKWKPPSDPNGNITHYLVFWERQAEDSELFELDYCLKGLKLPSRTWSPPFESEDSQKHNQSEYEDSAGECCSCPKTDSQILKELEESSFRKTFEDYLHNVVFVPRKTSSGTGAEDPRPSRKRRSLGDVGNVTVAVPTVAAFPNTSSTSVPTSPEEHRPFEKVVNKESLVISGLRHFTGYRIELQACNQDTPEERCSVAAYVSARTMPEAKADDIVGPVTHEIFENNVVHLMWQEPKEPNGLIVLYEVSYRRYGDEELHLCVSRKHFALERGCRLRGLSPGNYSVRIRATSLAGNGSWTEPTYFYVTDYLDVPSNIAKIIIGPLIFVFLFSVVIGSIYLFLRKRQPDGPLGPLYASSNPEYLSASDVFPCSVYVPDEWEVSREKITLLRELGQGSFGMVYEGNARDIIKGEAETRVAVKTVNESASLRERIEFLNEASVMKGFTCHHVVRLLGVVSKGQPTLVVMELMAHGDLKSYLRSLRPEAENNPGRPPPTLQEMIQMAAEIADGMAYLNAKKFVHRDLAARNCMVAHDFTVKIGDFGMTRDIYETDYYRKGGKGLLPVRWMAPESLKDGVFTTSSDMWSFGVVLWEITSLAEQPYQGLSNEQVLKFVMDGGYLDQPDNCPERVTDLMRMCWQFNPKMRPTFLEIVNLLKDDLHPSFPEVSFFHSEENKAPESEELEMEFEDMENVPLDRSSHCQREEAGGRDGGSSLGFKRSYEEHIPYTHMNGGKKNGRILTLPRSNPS

INSRR (human) = INSRR (human) (UniProt P14616)
IRAK4 (human) = IRAK4 (human) (UniProt Q9NWZ3)
LCK (mouse) = details: accession and sequence are those of the human protein
MAP2K1 (human) = MAP2K1 (human) (UniProt Q02750)
MAP2K1 (human), sequence (Q02750 whole entry, looked up): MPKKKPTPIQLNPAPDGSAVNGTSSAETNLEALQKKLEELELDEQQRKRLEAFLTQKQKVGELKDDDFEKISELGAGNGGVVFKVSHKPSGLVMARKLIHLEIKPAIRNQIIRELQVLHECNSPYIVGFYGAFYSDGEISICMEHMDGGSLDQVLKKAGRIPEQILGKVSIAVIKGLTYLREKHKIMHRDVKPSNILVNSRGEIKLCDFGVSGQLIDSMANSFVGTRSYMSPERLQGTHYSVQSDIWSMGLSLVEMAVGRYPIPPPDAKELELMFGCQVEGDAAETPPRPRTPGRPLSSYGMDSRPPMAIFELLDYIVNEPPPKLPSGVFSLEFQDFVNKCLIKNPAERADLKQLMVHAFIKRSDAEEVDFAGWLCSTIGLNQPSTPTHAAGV

MAP2K6 (human) = MAP2K6 (human) (UniProt P52564)
MAP3K9 (human) = MAP3K9 (human) (UniProt P80192)
MAP3K9 (human), sequence (P80192 whole entry, looked up): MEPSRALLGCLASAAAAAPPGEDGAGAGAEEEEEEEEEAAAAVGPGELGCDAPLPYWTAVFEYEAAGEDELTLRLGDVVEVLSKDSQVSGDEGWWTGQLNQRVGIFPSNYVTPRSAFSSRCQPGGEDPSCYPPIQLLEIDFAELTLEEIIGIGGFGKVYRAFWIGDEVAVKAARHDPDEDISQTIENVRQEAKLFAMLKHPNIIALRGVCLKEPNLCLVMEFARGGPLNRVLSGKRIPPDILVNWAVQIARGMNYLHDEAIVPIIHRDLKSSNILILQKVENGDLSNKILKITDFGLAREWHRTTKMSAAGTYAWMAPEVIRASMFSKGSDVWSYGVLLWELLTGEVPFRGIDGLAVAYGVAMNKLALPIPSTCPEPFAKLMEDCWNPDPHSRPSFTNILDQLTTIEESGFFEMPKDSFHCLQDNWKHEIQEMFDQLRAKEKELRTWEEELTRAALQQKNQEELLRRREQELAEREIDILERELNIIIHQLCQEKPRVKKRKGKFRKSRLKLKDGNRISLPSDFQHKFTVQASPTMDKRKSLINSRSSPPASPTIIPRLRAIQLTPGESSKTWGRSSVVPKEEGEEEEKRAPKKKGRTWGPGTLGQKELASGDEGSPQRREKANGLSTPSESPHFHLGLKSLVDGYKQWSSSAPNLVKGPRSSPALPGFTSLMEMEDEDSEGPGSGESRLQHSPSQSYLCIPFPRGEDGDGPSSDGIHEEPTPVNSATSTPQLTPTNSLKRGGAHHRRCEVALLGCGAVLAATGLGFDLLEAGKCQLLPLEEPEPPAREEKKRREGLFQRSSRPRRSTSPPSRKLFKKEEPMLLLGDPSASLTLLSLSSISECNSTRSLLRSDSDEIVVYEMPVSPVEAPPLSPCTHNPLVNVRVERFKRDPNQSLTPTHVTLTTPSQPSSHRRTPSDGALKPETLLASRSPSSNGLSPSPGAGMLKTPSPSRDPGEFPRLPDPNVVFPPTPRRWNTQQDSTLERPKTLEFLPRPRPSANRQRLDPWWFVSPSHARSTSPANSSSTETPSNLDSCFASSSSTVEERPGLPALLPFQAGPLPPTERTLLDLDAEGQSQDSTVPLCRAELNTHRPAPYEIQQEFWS

MAPK10 (human) = MAPK10 (human) (UniProt P53779)
MAPK10 (human), sequence (P53779 whole entry, looked up): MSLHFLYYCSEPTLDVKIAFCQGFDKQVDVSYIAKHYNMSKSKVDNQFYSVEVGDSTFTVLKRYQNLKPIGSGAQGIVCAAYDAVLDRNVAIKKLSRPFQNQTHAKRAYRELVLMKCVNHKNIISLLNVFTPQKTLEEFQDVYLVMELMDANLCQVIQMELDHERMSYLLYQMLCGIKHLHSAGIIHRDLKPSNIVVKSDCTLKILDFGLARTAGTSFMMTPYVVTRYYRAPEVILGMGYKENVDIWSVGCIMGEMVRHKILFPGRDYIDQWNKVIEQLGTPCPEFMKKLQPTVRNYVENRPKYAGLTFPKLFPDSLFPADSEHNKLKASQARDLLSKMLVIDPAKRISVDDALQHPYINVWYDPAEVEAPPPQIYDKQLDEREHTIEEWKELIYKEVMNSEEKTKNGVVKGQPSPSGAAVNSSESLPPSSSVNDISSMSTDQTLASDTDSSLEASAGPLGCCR

MAPK11 (human) = MAPK11 (human) (UniProt Q15759)
MAPK13 (human) = MAPK13 (human) (UniProt O15264)
MARK1 (human) = MARK1 (human) (UniProt Q9P0L2)
MARK2 (human) = MARK2 (human) (UniProt Q7KZI7)
MKNK1 (human) = MKNK1 (human) (UniProt Q9BUB5)
MYLK (human) = MYLK (human) (UniProt Q15746)
NEK2 (human) = NEK2 (human) (UniProt P51955)
NEK6 (human) = NEK6 (human) (UniProt Q9HC98)
[3] = test system: PAK2 (human), Q13177 [T402E]
PHKG1 (human) = PHKG1 (human) (UniProt Q16816)
PIM2 (human) = PIM2 (human) (UniProt Q9P1W9)
PIM2 (human), sequence (Q9P1W9 whole entry, looked up): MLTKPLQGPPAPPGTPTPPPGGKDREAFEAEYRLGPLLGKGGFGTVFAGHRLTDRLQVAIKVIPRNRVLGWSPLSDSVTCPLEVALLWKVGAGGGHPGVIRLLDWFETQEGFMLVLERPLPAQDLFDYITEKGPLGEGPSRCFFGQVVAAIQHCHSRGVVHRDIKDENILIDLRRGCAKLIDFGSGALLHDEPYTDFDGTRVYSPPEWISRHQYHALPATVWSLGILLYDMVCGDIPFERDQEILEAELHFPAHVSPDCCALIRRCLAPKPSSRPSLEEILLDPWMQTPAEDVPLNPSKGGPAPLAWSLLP

PIM3 (human) = PIM3 (human) (UniProt Q86V86)
PKN2 (human) = PKN2 (human) (UniProt Q16513)
ROCK2 (rat) = details: accession and sequence are those of the human protein
[4] = test system: RPS6KB1 (human), P23443 [T412E]
RPS6KB1 (human), P23443 [T412E], sequence (P23443 whole entry T412E, looked up): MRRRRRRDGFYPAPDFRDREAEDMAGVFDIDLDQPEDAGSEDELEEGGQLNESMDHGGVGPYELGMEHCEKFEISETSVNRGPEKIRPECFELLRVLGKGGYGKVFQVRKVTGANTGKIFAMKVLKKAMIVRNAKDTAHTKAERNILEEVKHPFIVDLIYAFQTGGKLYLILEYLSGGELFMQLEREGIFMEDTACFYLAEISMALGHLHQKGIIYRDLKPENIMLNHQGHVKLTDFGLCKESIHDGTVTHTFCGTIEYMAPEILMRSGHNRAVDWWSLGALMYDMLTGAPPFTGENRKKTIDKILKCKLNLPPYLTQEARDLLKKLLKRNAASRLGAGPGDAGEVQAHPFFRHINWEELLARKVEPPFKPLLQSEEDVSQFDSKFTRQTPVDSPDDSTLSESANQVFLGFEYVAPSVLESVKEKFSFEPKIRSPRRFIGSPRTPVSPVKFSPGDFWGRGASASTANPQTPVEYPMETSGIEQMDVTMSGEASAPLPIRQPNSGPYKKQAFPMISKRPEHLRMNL

SRPK1 (human) = SRPK1 (human) (UniProt Q96SB4)
[5] = target: STK11 CAB39 STRADA (human) (UniProt Q9Y376+Q7RTN6+Q15831)
SYK (human) = SYK (human) (UniProt P43405)
TBK1 (human) = TBK1 (human) (UniProt Q9UHD2)
TTK (human) = TTK (human) (UniProt P33981)

FGFR1 (human), sequence (P11362 whole entry, looked up): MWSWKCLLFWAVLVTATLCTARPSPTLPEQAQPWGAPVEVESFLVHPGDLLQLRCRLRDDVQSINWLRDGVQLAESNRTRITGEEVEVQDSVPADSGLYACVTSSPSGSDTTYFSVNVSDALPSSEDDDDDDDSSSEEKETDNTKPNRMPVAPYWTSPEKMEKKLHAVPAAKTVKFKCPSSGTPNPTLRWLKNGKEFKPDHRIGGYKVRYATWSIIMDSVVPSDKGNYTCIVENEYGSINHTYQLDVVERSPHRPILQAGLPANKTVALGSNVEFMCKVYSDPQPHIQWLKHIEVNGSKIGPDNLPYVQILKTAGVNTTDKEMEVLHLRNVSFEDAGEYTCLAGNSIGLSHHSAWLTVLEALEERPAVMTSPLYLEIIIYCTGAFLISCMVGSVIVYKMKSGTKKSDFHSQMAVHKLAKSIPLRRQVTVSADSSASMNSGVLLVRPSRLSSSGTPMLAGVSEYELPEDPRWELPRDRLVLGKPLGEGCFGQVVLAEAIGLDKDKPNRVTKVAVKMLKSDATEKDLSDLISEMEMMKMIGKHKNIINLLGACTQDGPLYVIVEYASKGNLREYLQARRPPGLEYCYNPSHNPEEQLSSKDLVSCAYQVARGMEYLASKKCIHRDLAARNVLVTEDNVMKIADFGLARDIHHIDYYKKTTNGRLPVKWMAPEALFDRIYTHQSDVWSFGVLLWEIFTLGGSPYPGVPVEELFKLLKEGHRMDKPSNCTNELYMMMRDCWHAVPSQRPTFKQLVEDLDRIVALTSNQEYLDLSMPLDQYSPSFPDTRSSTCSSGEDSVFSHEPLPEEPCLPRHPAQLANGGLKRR

NC(=O)c1ccc(-c2ccc(Oc3cncc4sc(-c5nn[nH]n5)cc34)cc2)cc1
residual activity ([1]; compound 1.0 µM): 96% | residual activity ([1]; compound 10.0 µM): 78% | residual activity ([2]; compound 1.0 µM): 77% | residual activity ([2]; compound 10.0 µM): 62% | residual activity (CSNK2A1 (human); compound 1.0 µM): 30% | residual activity (CSNK2A1 (human); compound 10.0 µM): 6% | residual activity (DYRK3 (human); compound 1.0 µM): 15% | residual activity (DYRK3 (human); compound 10.0 µM): 6% | residual activity (EPHA2 (human); compound 1.0 µM): 94% | residual activity (EPHA2 (human); compound 10.0 µM): 89% | residual activity (EPHB1 (human); compound 1.0 µM): 95% | residual activity (EPHB1 (human); compound 10.0 µM): 107% | residual activity (FGFR1 (human); compound 1.0 µM): 105% | residual activity (FGFR1 (human); compound 10.0 µM): 61% | residual activity (GSK3B (human); compound 1.0 µM): 38% | residual activity (GSK3B (human); compound 10.0 µM): 10% | residual activity (INSR (human); compound 1.0 µM): 111% | residual activity (INSR (human); compound 10.0 µM): 108% | residual activity (INSRR (human); compound 1.0 µM): 79% | residual activity (INSRR (human); compound 10.0 µM): 26% | residual activity (IRAK4 (human); compound 1.0 µM): 88% | residual activity (IRAK4 (human); compound 10.0 µM): 74% | residual activity (LCK (mouse); compound 1.0 µM): 113% | residual activity (LCK (mouse); compound 10.0 µM): 99% | residual activity (MAP2K1 (human); compound 1.0 µM): 85% | residual activity (MAP2K1 (human); compound 10.0 µM): 78% | residual activity (MAP2K6 (human); compound 1.0 µM): 104% | residual activity (MAP2K6 (human); compound 10.0 µM): 99% | residual activity (MAP3K9 (human); compound 1.0 µM): 95% | residual activity (MAP3K9 (human); compound 10.0 µM): 42% | residual activity (MAPK10 (human); compound 1.0 µM): 105% | residual activity (MAPK10 (human); compound 10.0 µM): 72% | residual activity (MAPK11 (human); compound 1.0 µM): 97% | residual activity (MAPK11 (human); compound 10.0 µM): 104% | residual activity (MAPK13 (human); compound 1.0 µM): 92% | residual activity (MAPK13 (human); compound 10.0 µM): 54% | residual activity (MARK1 (human); compound 1.0 µM): 89% | residual activity (MARK1 (human); compound 10.0 µM): 78% | residual activity (MARK2 (human); compound 1.0 µM): 80% | residual activity (MARK2 (human); compound 10.0 µM): 83% | residual activity (MKNK1 (human); compound 1.0 µM): 100% | residual activity (MKNK1 (human); compound 10.0 µM): 84% | residual activity (MYLK (human); compound 1.0 µM): 86% | residual activity (MYLK (human); compound 10.0 µM): 35% | residual activity (NEK2 (human); compound 1.0 µM): 94% | residual activity (NEK2 (human); compound 10.0 µM): 80% | residual activity (NEK6 (human); compound 1.0 µM): 98% | residual activity (NEK6 (human); compound 10.0 µM): 94% | residual activity ([3]; compound 1.0 µM): 93% | residual activity ([3]; compound 10.0 µM): 90% | residual activity (PHKG1 (human); compound 1.0 µM): 100% | residual activity (PHKG1 (human); compound 10.0 µM): 84% | residual activity (PIM2 (human); compound 1.0 µM): 85% | residual activity (PIM2 (human); compound 10.0 µM): 14% | residual activity (PIM3 (human); compound 1.0 µM): 79% | residual activity (PIM3 (human); compound 10.0 µM): 21% | residual activity (PKN2 (human); compound 1.0 µM): 80% | residual activity (PKN2 (human); compound 10.0 µM): 53% | residual activity (ROCK2 (rat); compound 1.0 µM): 73% | residual activity (ROCK2 (rat); compound 10.0 µM): 38% | residual activity ([4]; compound 1.0 µM): 96% | residual activity ([4]; compound 10.0 µM): 64% | residual activity (SRPK1 (human); compound 1.0 µM): 99% | residual activity (SRPK1 (human); compound 10.0 µM): 48% | residual activity ([5]; compound 1.0 µM): 80% | residual activity ([5]; compound 10.0 µM): 59% | residual activity (SYK (human); compound 1.0 µM): 107% | residual activity (SYK (human); compound 10.0 µM): 95% | residual activity (TBK1 (human); compound 1.0 µM): 87% | residual activity (TBK1 (human); compound 10.0 µM): 63% | residual activity (TTK (human); compound 1.0 µM): 79% | residual activity (TTK (human); compound 10.0 µM): 51%

COc1cc(O)c2c(c1)[C@H]1OC1C[C@H](O)[C@H](O)C(=O)/C=C\C[C@H](C)OC2=O (stereo partly drawn)
residual activity ([1]; compound 0.01 µM): 109% | residual activity ([1]; compound 0.1 µM): 124% | residual activity ([1]; compound 1.0 µM): 107% | residual activity ([2]; compound 0.01 µM): 105% | residual activity ([2]; compound 0.1 µM): 103% | residual activity (CSNK2A1 (human); compound 0.01 µM): 123% | residual activity (CSNK2A1 (human); compound 0.1 µM): 121% | residual activity (CSNK2A1 (human); compound 1.0 µM): 133% | residual activity (DYRK3 (human); compound 0.01 µM): 113% | residual activity (DYRK3 (human); compound 0.1 µM): 109% | residual activity (DYRK3 (human); compound 1.0 µM): 124% | residual activity (EPHA2 (human); compound 0.01 µM): 97% | residual activity (EPHA2 (human); compound 0.1 µM): 98% | residual activity (EPHA2 (human); compound 1.0 µM): 56% | residual activity (EPHB1 (human); compound 0.01 µM): 97% | residual activity (EPHB1 (human); compound 0.1 µM): 110% | residual activity (EPHB1 (human); compound 1.0 µM): 84% | residual activity (FGFR1 (human); compound 0.01 µM): 118% | residual activity (FGFR1 (human); compound 0.1 µM): 154% | residual activity (GSK3B (human); compound 0.01 µM): 91% | residual activity (GSK3B (human); compound 0.1 µM): 106% | residual activity (INSR (human); compound 0.01 µM): 112% | residual activity (INSR (human); compound 0.1 µM): 116% | residual activity (INSR (human); compound 1.0 µM): 97% | residual activity (INSRR (human); compound 0.01 µM): 104% | residual activity (INSRR (human); compound 0.1 µM): 108% | residual activity (INSRR (human); compound 1.0 µM): 113% | residual activity (IRAK4 (human); compound 0.01 µM): 112% | residual activity (IRAK4 (human); compound 0.1 µM): 99% | residual activity (IRAK4 (human); compound 1.0 µM): 57% | residual activity (LCK (mouse); compound 0.01 µM): 79% | residual activity (LCK (mouse); compound 0.1 µM): 93% | residual activity (LCK (mouse); compound 1.0 µM): 69% | residual activity (MAP2K1 (human); compound 0.01 µM): 101% | residual activity (MAP2K1 (human); compound 0.1 µM): 21% | residual activity (MAP2K1 (human); compound 1.0 µM): 1% | residual activity (MAP2K6 (human); compound 0.01 µM): 59% | residual activity (MAP2K6 (human); compound 0.1 µM): 21% | residual activity (MAP2K6 (human); compound 1.0 µM): 20% | residual activity (MAP3K9 (human); compound 0.01 µM): 112% | residual activity (MAP3K9 (human); compound 0.1 µM): 117% | residual activity (MAP3K9 (human); compound 1.0 µM): 101% | residual activity (MAPK10 (human); compound 0.01 µM): 89% | residual activity (MAPK10 (human); compound 0.1 µM): 101% | residual activity (MAPK10 (human); compound 1.0 µM): 107% | residual activity (MAPK11 (human); compound 0.01 µM): 88% | residual activity (MAPK11 (human); compound 0.1 µM): 93% | residual activity (MAPK11 (human); compound 1.0 µM): 98% | residual activity (MAPK13 (human); compound 0.01 µM): 101% | residual activity (MAPK13 (human); compound 0.1 µM): 100% | residual activity (MAPK13 (human); compound 1.0 µM): 108% | residual activity (MARK1 (human); compound 0.01 µM): 101% | residual activity (MARK1 (human); compound 0.1 µM): 99% | residual activity (MARK1 (human); compound 1.0 µM): 101% | residual activity (MARK2 (human); compound 0.01 µM): 90% | residual activity (MARK2 (human); compound 0.1 µM): 100% | residual activity (MARK2 (human); compound 1.0 µM): 100% | residual activity (MKNK1 (human); compound 0.01 µM): 100% | residual activity (MKNK1 (human); compound 0.1 µM): 87% | residual activity (MKNK1 (human); compound 1.0 µM): 55% | residual activity (MYLK (human); compound 0.01 µM): 108% | residual activity (MYLK (human); compound 0.1 µM): 102% | residual activity (MYLK (human); compound 1.0 µM): 96% | residual activity (NEK2 (human); compound 0.01 µM): 103% | residual activity (NEK2 (human); compound 0.1 µM): 127% | residual activity (NEK2 (human); compound 1.0 µM): 105% | residual activity (NEK6 (human); compound 0.01 µM): 97% | residual activity (NEK6 (human); compound 0.1 µM): 90% | residual activity (NEK6 (human); compound 1.0 µM): 98% | residual activity ([3]; compound 0.01 µM): 99% | residual activity ([3]; compound 0.1 µM): 94% | residual activity ([3]; compound 1.0 µM): 95% | residual activity (PHKG1 (human); compound 0.01 µM): 100% | residual activity (PHKG1 (human); compound 0.1 µM): 98% | residual activity (PHKG1 (human); compound 1.0 µM): 107% | residual activity (PIM2 (human); compound 0.01 µM): 93% | residual activity (PIM2 (human); compound 0.1 µM): 114% | residual activity (PIM3 (human); compound 0.01 µM): 92% | residual activity (PIM3 (human); compound 0.1 µM): 98% | residual activity (PIM3 (human); compound 1.0 µM): 99% | residual activity (PKN2 (human); compound 0.01 µM): 93% | residual activity (ROCK2 (rat); compound 0.01 µM): 91% | residual activity (ROCK2 (rat); compound 0.1 µM): 94% | residual activity (ROCK2 (rat); compound 1.0 µM): 99% | residual activity ([4]; compound 0.01 µM): 87% | residual activity ([4]; compound 0.1 µM): 92% | residual activity ([4]; compound 1.0 µM): 106% | residual activity (SRPK1 (human); compound 0.01 µM): 111% | residual activity (SRPK1 (human); compound 0.1 µM): 95% | residual activity (SRPK1 (human); compound 1.0 µM): 100% | residual activity ([5]; compound 0.01 µM): 119% | residual activity ([5]; compound 0.1 µM): 120% | residual activity ([5]; compound 1.0 µM): 104% | residual activity (SYK (human); compound 0.1 µM): 108% | residual activity (SYK (human); compound 1.0 µM): 85% | residual activity (TBK1 (human); compound 0.01 µM): 110% | residual activity (TBK1 (human); compound 0.1 µM): 112% | residual activity (TBK1 (human); compound 1.0 µM): 93% | residual activity (TTK (human); compound 0.01 µM): 101% | residual activity (TTK (human); compound 0.1 µM): 95% | residual activity (TTK (human); compound 1.0 µM): 101%
